# Literature values, collected in US8754219B2, “Compounds that modulate intracellular calcium” (Calcimedica, Inc., priority 2010, dated 2014).
# Experiments:
# [1] = tested on: Jurkat cells
# [2] = tested on: Jurkat cells; remark: listed apart in the source
# [3] = tested on: colon cancer cells
# [4] = tested on: colon cancer cells; remark: listed apart in the source
# [5] = target: STIM1 and Orai1 in HEK293 cells (Homo sapiens, UniProt Q96D31); conditions: Orai1 expressed along with STIM1
# Sequence of STIM1 and Orai1 in HEK293 cells (Q96D31 whole entry): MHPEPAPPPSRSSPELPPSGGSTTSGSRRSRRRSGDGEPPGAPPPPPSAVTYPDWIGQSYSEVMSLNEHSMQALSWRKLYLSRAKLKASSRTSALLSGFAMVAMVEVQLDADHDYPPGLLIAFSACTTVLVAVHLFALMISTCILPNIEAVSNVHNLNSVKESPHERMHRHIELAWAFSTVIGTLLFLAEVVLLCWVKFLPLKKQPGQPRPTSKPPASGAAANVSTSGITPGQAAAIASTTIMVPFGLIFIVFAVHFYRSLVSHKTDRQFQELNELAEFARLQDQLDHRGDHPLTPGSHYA
Structure (SMILES),inhibition of SOCE [1],inhibition of proliferation [2],inhibition of SOCE [3],inhibition of proliferation [4],block of store dependent Ca2+ entry [5]
Cc1nnsc1C(=O)Nc1ccc(-n2nc(C(F)(F)F)cc2C(F)(F)F)cc1 [BTP-2],inhibits,inhibits,inhibits,inhibits,–
NCCOB(c1ccccc1)c1ccccc1 [2-aminoethoxydiphenylborate],–,–,–,–,completely blocked
